From US8623911B2, “Boron-containing small molecules as anti-protozoal agent” (Anacor Pharmaceuticals, Inc., priority 2010, dated 2014)
Read-outs that look alike come from different tables or passages of the source.

Tests used:
[1] = tested on: TREU 667 strain of T. b. brucei; experiment: Chronic CNS Model [Murine Stage 2 HAT]; format: in vivo; settings: 50 mg/kg PO BID for 7 days, starting at Day 21 post-infection
Experimental: Mice were infected with 10,000 parasites of the TREU 667 strain of T. b. brucei. Twenty one days post-infection mice were treated with a dose of between 6 and 100 mg/kg of a compound of the invention, either BID or QD for 7 days intraperitoneally (IP) or orally (PO). Positive control mice were treated with Diminazene (10 mg/kg, IP) on Day 4 post-infection. Negative control mice were treated with Diminazene (10 mg/kg, PO) on Day 21. Since Diminazene is not able to penetrate the CNS, mice treated at Day 21 are not able to cure the infection. Starting 1 week after treatment, mice were checked for parasitemia by microscopic examination of smears prepared from tail vein blood. Parasite positive animals were immediately removed from the cages and euthanized. Animals were considered to be cured of a CNS infection if they were aparasitemic for at least 180 days after the end of the treatment period.

[2] = tested on: LAB 110 Eatro strain of T. b. brucei; experiment: Acute Murine Model A [Murine Stage 1 HAT]; format: in vivo
Experimental: Female Swiss Webster mice were inoculated with 250,000 parasites of the LAB 110 Eatro strain of T. b. brucei. 24 hrs post-infection, treatment was initiated by administration of a compound of the invention BID for 4 days with 20 mg/kg/dose (40 mg/kg/day) intraperitoneally (IP) or orally (PO), 5 mg/kg BID or 10 mg/kg BID orally (PO). 3 mice per group were treated with a particular compound of the invention. Mice were checked for parasitemia weekly by microscopic examination of smears prepared from tail vein blood. Animals remaining parasite free for more than 30 days beyond the end of the treatment period were considered cured. Control untreated animals typically succumbed to the infection within 4-5 days following i.p. inoculation with parasites. Mice were monitored for 30 days for survival. Pentamidine at 2 mg/kg IP was used as the positive control. After 10 days, 0% of the untreated mice were parasite free. After 10 days, 67% of mice treated PO with 10 mg/kg BID of N-(1-Hydroxy-3,4-dihydro-1H-benzo[c][1,2]oxaborinin-7-yl)-4-methoxy-benzamide (M19) were parasite free. After 30 days, 100% of mice treated PO with 10 mg/kg BID of 4-fluoro-N-(1-hydroxy-3,4-dihydro-1H-benzo[c][1,2]oxaborinin-7-yl)-2-trifluoromethyl-benzamide (M1) were parasite free.

[3] = Pharmacokinetic studies in mice (plasma and brain, IV and oral gavage); format: in vivo, male CD-1 mice; settings: for AUC(0-t) / clearance / AUC(0-inf) / Vd / CL/F / half-life: male, CD-1, mouse; for AUC(0-t): read-out: Exposure/trapezoid AUC0-last; for clearance: read-out: Clearance Cl (converted); for AUC(0-inf): read-out: Exposure/trapezoid AUC0-inf; for Vd: read-out: Vdss; for CL/F: read-out: Oral Clearance Cl/F (converted); for half-life: read-out: t½ (converted); for Cmax: mouse, male CD-1 mice
Experimental: Male CD-1 mice weighing approximately 20 to 30 g received the test article M1 by either intravenous (IV) or oral gavage (OG) routes. Animals in the IV group (11 animals, 1 per time point) received a single bolus injection at a nominal dose level of 2 mg/kg of the test article. Animals receiving oral doses were administered the test article as a single OG dose (10 animals per dose level, 1 per time point) at nominal dose levels of 25 and 50 mg/kg. IV doses were administered as a solution in 5% (w/v) dextrose in sterile water for injection. OG doses at 25 and 50 mg/kg were administered as suspensions in 5% (w/v) dextrose in sterile water for injection and as in situ sodium salts in 5% (m/v) dextrose: 2% (v/v) ethanol in DWI, respectively. All dose solutions were delivered at 4 mL/kg. Animals receiving the IV dose at 2 mg/kg or the OG dose at 25 mg/kg were not fasted. Animals receiving the OG dose at 50 mg/kg were fasted for 4 hours before dosing and for 1 hour after dosing. Blood and brain tissue were collected from 1 animal/timepoint/group at 0.17, 0.5, 1, 2, 3, 4, 6, 8, 12, 18 and 24 hr after IV dosing, and at 0.5, 1, 2, 3, 4, 6, 8, 12, 18 and 24 hr after OG dosing. Whole blood samples were processed completely to plasma following collection. Plasma and brain tissue were submitted to bioanalysis to determine pharmacokinetic parameters and test article CNS disposition. Plasma and brain tissue from non-dosed animals were collected to serve as surrogate pre-dose samples. Bioanalysis for test article in plasma and brain tissue was performed by HPLC with tandem mass spectrometry (LC-MSMS). Plasma samples were treated with 4 volumes of 0.5% formic acid in methanol to precipitate plasma proteins. Treated samples were centrifuged and supernatants removed for analysis. Brain tissues were massed and homogenized mechanically in the presence of 1 volume of phosphate-buffered saline (PBS). The resulting tissue homogenates were then diluted with a further volume of PBS, and then treated in the same manner as plasma. Extracted samples were assayed for test article by means of LC-MSMS employing reversed-phase chromatography coupled to a triple quadrupole mass spectrometer employing electrospray ionization in the positive ion mode. The analytical column was a Phenomenex Luna 3μ C8 50×2 mm, with an online sample purification step performed on a Phenomenex Synergi 4μ Polar RP 50×2 mm column. Test articles were eluted using a binary mobile phase gradient comprising 5 mM Ammonium Acetate: 0.1% formic acid in either MeOH or H2O. Non-compartmental analysis of plasma test article concentration versus time was performed in Microsoft Excel to generate pharmacokinetic parameters including: area under the curve (AUC), clearance (as Cl or Cl/F), volume of distribution (Vdss), half-life (t½), and bioavailability (F).

[4] = oral delivery to mice, 25 and 50 mg/kg

In the case of O=C(Nc1ccc2c(c1)B(O)OCC2)c1ccc(F)cc1C(F)(F)F [M1, 4-Fluoro-N-(1-hydroxy-3,4-dihydro-1H-benzo[c][1,2]oxaborinin-7-yl)-2-trifluoromethyl-benzamide], the “mice with absence of blood parasites through Day 180” value [1] is reported as 100%, the “mice parasite free after 30 days” value ([2]; female Swiss Webster mice, PO 10 mg/kg BID for 4 days, after 30 days) is reported as 100% and the “Mean Survival Days” value ([2]; mice infected with T. b. brucei, 10 mg/kg, BID, orally, 4 days) is reported as 30 days. For the same compound, the “period brain concentrations are maintained above the MIC” value ([3]; OG dosing at 25 mg/kg) was “approximately 5 hours”, the “period brain concentrations are maintained above the MIC” value ([3]; OG dosing at 50 mg/kg) was roughly 10 h and the AUC(0-t) ([3]; brain, IV 2 mg/kg, last = 12 hours) was 700 ng·h/mL. The clearance ([3]; brain, IV 2 mg/kg) was 42.3 mL/min/kg, the AUC(0-inf) ([3]; brain, IV 2 mg/kg) was 890 ng·h/mL and the Vd ([3]; brain, IV 2 mg/kg) was 17.1 L/kg. For the same compound, the AUC(0-t) ([3]; brain, oral 25 mg/kg, last = 12 hours) was 14300 ng·h/mL, the AUC(0-inf) ([3]; brain, oral 25 mg/kg) was 14400 ng·h/mL and the CL/F ([3]; brain, oral 25 mg/kg) was 29.2 mL/min/kg. For the same compound, the AUC(0-t) ([3]; brain, oral 50 mg/kg, last = 12 hours) was 22900 ng·h/mL, the AUC(0-inf) ([3]; brain, oral 50 mg/kg) was 24700 ng·h/mL and the CL/F ([3]; brain, oral 50 mg/kg) was 36.5 mL/min/kg. It also gave an AUC(0-t) ([3]; plasma, IV 2 mg/kg, last = 24 hours) of 1580 ng·h/mL, a clearance ([3]; plasma, IV 2 mg/kg) of 27.8 mL/min/kg and an AUC(0-inf) ([3]; plasma, IV 2 mg/kg) of 1610 ng·h/mL. For the same compound, the Vd ([3]; plasma, IV 2 mg/kg) was 5 L/kg, the half-life ([3]; plasma, IV 2 mg/kg) was 6.88 h and the AUC(0-t) ([3]; plasma, oral 25 mg/kg, last = 24 hours) was 6390 ng·h/mL. For the same compound, the AUC(0-inf) ([3]; plasma, oral 25 mg/kg) was 6460 ng·h/mL, the CL/F ([3]; plasma, oral 25 mg/kg) was 64.5 mL/min/kg and the half-life ([3]; plasma, oral 25 mg/kg) was 5.29 h. The AUC(0-t) ([3]; plasma, oral 50 mg/kg, last = 24 hours) was 81400 ng·h/mL, the AUC(0-inf) ([3]; plasma, oral 50 mg/kg) was 83400 ng·h/mL and the CL/F ([3]; plasma, oral 50 mg/kg) was 10.2 mL/min/kg. For the same compound, the Cmax ([3]; brain, oral 25 mg/kg) was 5840 ng/mL, the Cmax ([3]; brain, oral 50 mg/kg) was 4210 ng/mL and the Cmax ([3]; plasma, oral 25 mg/kg) was 2230 ng/mL. For the same compound, the Cmax ([3]; plasma, oral 50 mg/kg) was 13400 ng/mL, the “dose proportionality of brain exposure” value [3, 4] was “approximately proportional” and the “dose proportionality of plasma exposure” value [3, 4] was “superproportional increase”. For the same compound, the “period for which brain:plasma ratio is greater than unity” value ([3]; oral dose of 25 mg/kg) was “approximately 4 hours”, the “brain:plasma ratio” value ([3]; oral dose of 25 mg/kg, for approximately 4 hours following dosing) was “greater than unity” and the “F (% of IV)” value ([3]; plasma, oral 25 mg/kg) was 43.2 % of IV.
